Experimental data from patent US5292521A, “Solid oral preparation containing a pyrrolidine derivative with a catechol group” (priority 1990, dated 1994).
Where two headings read alike, the source gives them in different places.

What was measured:
[1] = Oral administration to fasted beagles with L-cysteine or L-aspartic acid, plasma drug disposition parameters (Experimental Example 4); type: in vivo; conditions: for AUC(0-t) at 8 h / Cmax / Tmax: dog, plasma, po, 3 mg/kg; for AUC(0-t) at 8 h: read-out: AUC (0-8 hr) mean ± SE; for Cmax: read-out: Cmax mean ± SE; for Tmax: read-out: Tmax mean ± SE
Method: A similar mixture to that described above was prepared except that L-cysteine was replaced by 350 mg of L-aspartic acid.
(§1) (a) Administration and collection of blood sample
An internal standard substance (IS 20 ng in 200 μl) was added to 1 ml of blood plasma. After dilution with 2 ml of water, the aqueous solution was passed through a BONDELUTE (trade name) C18 column previously washed with 3 ml of methanol containing 0.1% of acetic acid and 9 ml of water. After further washing with 9 ml of water and 2 ml of acetonitrile, the sample was eluted with 1.2 ml of methanol containing 0.1% of perchloric acid. The solvent was distilled off and the residue was dissolved in 200 μl of a 0.1% acetic acid aqueous solution/methanol mixture (2/1, V/V). 50 to 100 μl thereof was injected into an instrument for HPLC for determination. Separately, blood plasma containing known amounts of compound (IX) and IS was treated to prepare an addition/recovery calibration curve. The concentration was determined from the ratio of the peak height of compound (IX) to that of IS. The detection limit in this method was 0.05 ng/ml of plasma.
(§2) (c) HPLC determination conditions
A HPLC pump used was CCPD mfd. by Toyo Soda Mfg. Co., Ltd. 1.35 ml/min of an aqueous solution containing 0.1% of perchloric acid and 0.01% of a disodium ethylenediaminetetraacetate/methanol mixture 80:9 (V/V) was introduced therein. The sample was injected into the instrument with a WISP 710B auto-sampler mfd. by Waters at intervals of about 50 minutes. A reversed phase ODS-120 T column (4.6×250 mm) with a prefilter was used as the analysis column. The detector used was an ECD-100 electrochemical detector mfd. by Acome. The voltage was +650 mV (against a SEC electrode).

[2] = Oral administration to fasted beagles with ascorbic, citric or tartaric acid, plasma drug disposition parameters (Experimental Example 3); type: in vivo; conditions: for AUC(0-t) at 6 h / Cmax / Tmax: dog, plasma, po, 3 mg/kg, n=4; for AUC(0-t) at 6 h: read-out: AUC (0-6 hr) mean ± SE; for Cmax: read-out: Cmax mean ± SE; for Tmax: read-out: Tmax mean ± SE (converted)
Excerpt: Compound (IX) and ascorbic acid, citric acid or tartaric acid were weighed, pulverized thoroughly and mixed together in an agate mortar. The mixture was divided into portions and filled in gelatin capsules (No. 1 or No. 00) and the gap in each capsule was further filled with lactose to obtain a sample. Separately, compound (IX) was formulated into a powder of five-fold dilution with lactose and filled in capsules in a similar manner to that described above to obtain a control sample.
The dose of compound (IX) was adjusted to 3 mg/kg in all the cases, while that of ascorbic acid was adjusted to three levels, i.e. 3 mg/kg, 9 mg/kg and 15 mg/kg and that of each of citric acid and tartaric acid was adjusted to one level of 15 mg/kg.
as §1
The capsule of compound (IX) was given to each of 4 beagles (average body weight 9.53 kg) together with 30 ml of water by oral administration after fasting overnight (14 hours). The experiment was conducted by the crossover administration method while the beagles were kept fasting.
An internal standard substance (IS 50 ng in 50 μl) was added to 1 ml of blood plasma. After extraction with 5 ml of ethyl acetate, the solvent was distilled off. 100 μl of a citrate buffer solution (pH 3.5) was added thereto to form a solution again, which was washed with 1 ml of diethyl ether. The lower layer was separated and 50 μl of methanol was added thereto. 50 to 100 μl thereof was injected into an instrument for high-performance liquid chromatography (HPLC) for determination. Separately, blood plasma containing known amounts of compound (IX) and IS was treated to prepare an addition/recovery calibration curve. The concentration was determined from the ratio of the peak height of compound (IX) to that of IS. The detection limit in this method was 0.2 ng/ml of plasma.
as §2
A HPLC pump used was CCPD mfd. by Toyo Soda Mfg. Co., Ltd. 1.5 ml/min of a citrate buffer (pH 3.5)/methanol mixture 80:1 (V/V) was introduced therein. The sample was injected into the instrument with a WISP 710B auto-sampler mfd. by Waters at intervals of about 50 minutes. A reversed phase Nucleosil (trade name) 7C6H5 column (4.6×250 mm) with a prefilter was used as the analysis column. The detector used was an ECD-100 electrochemical detector mfd. by Acome. The voltage was +650 mV (against a SEC electrode).
The citrate buffer solution (pH 3.5) was prepared by dissolving 26.25 g of citric acid, 16.58 g of anhydrous sodium acetate, 12.25 g of sodium hydroxide, 0.8375 g of disodium ethylenediaminetetraacetate, 93.8 ml of glacial acetic acid and 35.9 ml of 60% perchloric acid in 2500 ml of distilled water.
The AUC value in the period of 0 to 6 hours was determined from each of these curves. The results are given in FIG. 6, which is a bar graph for the comparison of the AUC values of the respective samples.

[3] = 3 mg/kg oral + L-aspartic acid 15 mg/kg, n=2
[4] = 3 mg/kg oral + L-cysteine 15 mg/kg, n=2
[5] = 3 mg/kg oral, none (control), n=4
[6] = 3 mg/kg oral + ascorbic acid 3 mg/kg (1:1)
[7] = 3 mg/kg oral + ascorbic acid 9 mg/kg (1:3)
[8] = 3 mg/kg oral + ascorbic acid 15 mg/kg (1:5)
[9] = 3 mg/kg oral + citric acid 15 mg/kg (1:5)
[10] = 3 mg/kg oral + tartaric acid 15 mg/kg (1:5)
[11] = 3 mg/kg oral, no organic acid (control)

SMILES: Oc1ccc([C@@H]2CNC[C@H]2c2cccc(O)c2Cl)cc1O (relative stereo) [compound (IX)]
- Addition effect (AUC ratio) ([1]; 3 mg/kg oral + L-aspartic acid 15 mg/kg): 2.46
- Addition effect (AUC ratio) ([1]; 3 mg/kg oral + L-cysteine 15 mg/kg): 1.59
- Addition effect (AUC ratio) ([1]; 3 mg/kg oral, none (control)): 1.00
- effect relative to that obtained by adding tartaric acid ([1]; L-cysteine and L-aspartic acid): ~2.7 times
- AUC(0-t) at 8 h [1, 3]: 37.5 ± 0.2 ng·h/mL
- Cmax [1, 3]: 48.2 ± 2.5 ng/mL
- Tmax [1, 3]: 45 ± 15 min
- AUC(0-t) at 8 h [1, 4]: 24.4 ± 1 ng·h/mL
- Cmax [1, 4]: 15.3 ± 2.7 ng/mL
- Tmax [1, 4]: 70.2 ± 50.4 min
- Cmax [1, 5]: 21 ± 5.3 ng/mL
- Tmax [1, 5]: 43.8 ± 16.8 min
- increase of AUC value ([1]; with L-aspartic acid): 2.46 -fold
- increase of AUC value ([1]; with L-cysteine): 1.59 -fold
- Addition effect ratio ([2]; 3 mg/kg oral + ascorbic acid 3 mg/kg (1:1), AUC ratio to no additive): 1.9
- Addition effect ratio ([2]; 3 mg/kg oral + ascorbic acid 9 mg/kg (1:3), AUC ratio to no additive): 4.8
- increase of AUC value vs no added acid ([2]; 3 mg/kg oral + ascorbic acid 15 mg/kg): 7 -fold
- Addition effect ratio ([2]; 3 mg/kg oral + ascorbic acid 15 mg/kg (1:5), AUC ratio to no additive): 7.0
- Addition effect ratio ([2]; 3 mg/kg oral + citric acid 15 mg/kg (1:5), AUC ratio to no additive): 3.3
- Addition effect ratio ([2]; 3 mg/kg oral + tartaric acid 15 mg/kg (1:5), AUC ratio to no additive): 2.7
- Addition effect ratio ([2]; 3 mg/kg oral, no organic acid, base): 1.0
- AUC(0-t) at 6 h [2, 6]: 28.4 ± 6.5 ng·h/mL
- Cmax [2, 6]: 33.8 ± 13.2 ng/mL
- Tmax [2, 6]: 34 min
- AUC(0-t) at 6 h [2, 7]: 72.6 ± 18.5 ng·h/mL
- Cmax [2, 7]: 187 ± 91.7 ng/mL
- Tmax [2, 7]: 43 min
- AUC(0-t) at 6 h [2, 8]: 107 ± 14.6 ng·h/mL
- Cmax [2, 8]: 139 ± 20.9 ng/mL
- Tmax [2, 8]: 55 min
- AUC(0-t) at 6 h [2, 9]: 50.7 ± 16.5 ng·h/mL
- Cmax [2, 9]: 87.4 ± 30.2 ng/mL
- Tmax [2, 9]: 29 min
- AUC(0-t) at 6 h [2, 10]: 40.4 ± 7.8 ng·h/mL
- Cmax [2, 10]: 61.5 ± 26.3 ng/mL
- Tmax [2, 10]: 45 min
- AUC(0-t) at 6 h [2, 11]: 15.2 ± 2.8 ng·h/mL
- Cmax [2, 11]: 21 ± 5.3 ng/mL
- Tmax [2, 11]: 44 min
- increase of AUC value vs no added acid ([2]; with citric acid): 3.3 -fold
- increase of AUC value vs no added acid ([2]; with tartaric acid): 2.7 -fold
